Data from patent US12715894B2, “Triptolide conjugates and uses thereof” (priority 2020, dated 2026).

Tests used:
huh-7 cells = assay: Huh-7 HCC animal model, antitumor efficacy against solid tumors; type: in vivo, male nude mice; details: Huh-7 xenograft; for Tumor volume (V) 4 days after treatment: Compound 1 and 2 at 2.0 mg/kg i.p. once daily, Lenvatinib 5.0 mg/kg oral once daily, control V=598 mm^3; for Tumor inhibition rate based on the average tumor weights: after 21 days treatment, Compound 1 and 2 at 2.0 mg/kg i.p. daily, Lenvatinib 5.0 mg/kg oral daily; for Increase of average tumor volume by the end of the treatment compared to before the treatment: end of 3 weeks daily treatment, given as 'increased up to', control up to 15 times
Method: To evaluate the antitumor efficacy of the triptolide conjugates disclosed herein against solid tumors, huh-7 cells (~10×10^6 cells) were injected into the right flank of male nude mice. When the tumors reached a volume of ~150 mm^3, the mice were randomly divided into 4 groups with 7 or 8 mice per group and were treated as below indicated. Tumor volumes were measured twice per week and estimated by using the formula: Tumor volume (V)=(L×W×W)÷2, W is tumor width, L is tumor length. • 1. Group 1 was the control group in which the mice were administered daily the vehicle (0.5% CMC-Na/carboxymethylcellulose sodium, i.p.) for 3 weeks; • 2. Group 2 was the test group in which the mice were administered daily Compound 1 (2.0 mg/kg, i.p.) for 3 weeks; • 3. Group 3 was the test group in which the mice were administered daily Compound 2 (2.0 mg/kg, i.p.) for 3 weeks; and • 4. Group 4 was the positive control group in which the mice where administered daily Lenvatinib (5.0 mg/kg, oral) for 3 weeks.

HepG-2 cells = assay: HepG-2 HCC animal model, antitumor efficacy against solid tumors; type: in vivo, male nude mice; details: HepG-2 xenograft; Conjugate 4 at 2.0 mg/kg, Conjugates 8, 9, 10 at 6.0 mg/kg, i.p. daily for 4 weeks; vehicle group increased to 17.72 times
Method: To evaluate the antitumor efficacy of the novel triptolide-conjugate against solid tumors, HepG-2 cells (~10×10^6 cells) were injected into the right flank of male nude mice. when the tumors were reached a volume of ~150 mm^3, mice were randomly divided into 5 groups with 8 mice per group and treated as below indicated. Tumor volumes were measured twice per week and estimated by using the formula: Tumor volume (V)=(L×W×W) 2, W is tumor width, L is tumor length. • 1. Group 1 is the control in which the mice were daily administered vehicle (i.p. brine) for 4 weeks; • 2. in Group 2, mice were daily administered Conjugate 4 (2.0 mg/kg, i.p.) for 4 weeks; • 3. in Group 3, mice were daily administered Conjugate 8 (6.0 mg/kg, i.p.) for 4 weeks; • 4. in Group 4, mice were daily administered Conjugate 9 (6.0 mg/kg i.p.) for 4 weeks; • 5. in Group 5, mice were daily administered Conjugate 10 (6.0 mg/kg, i.p.) for 4 weeks;

Row | SMILES | Tumor volume (V) 4 days after treatment (huh-7 cells) [mm^3] | Tumor inhibition rate based on the average tumor weights (huh-7 cells) [%] | Increase of average tumor volume by the end of the treatment compared to before the treatment (huh-7 cells) | Tumor size after 28 days treatment (HepG-2 cells)
1 | CC(C)[C@]12O[C@H]1[C@@H]1O[C@]13[C@]1(O[C@H]1C[C@H]1C4=C(CC[C@@]13C)C(=O)OC4)[C@@H]2OC(=O)CCC(=O)OC[C@H]1OC(O)[C@H](F)[C@@H](O)[C@@H]1O (stereo partly drawn) [Compound 1, ((2R,3S,4S,5R)-5-fluoro-3,4,6-trihydroxytetrahydro-2H-pyran-2-yl)methyl ((5bS,6aS,7aR,8R,8aS,9aS,9bS,10aS,10bS)-8a-isopropyl-10b-methyl-3-oxo-1,2,3,5,5b,6,6a,8,8a,9a,9b,10b-dodecahydrotris(oxireno)[2′,3′:4b,5;2″,3″:6,7;2′″,3′″:8a,9]phenanthro[1,2-c]furan-8-yl) succinate] | 245 | 88.3 | up to 2.0 times | 
2 | CC(C)[C@]12O[C@H]1[C@@H]1O[C@]13[C@]1(O[C@H]1C[C@H]1C4=C(CC[C@@]13C)C(=O)OC4)[C@@H]2OC(=O)CCC(=O)N1CCN(C(=O)CCC(=O)N[C@@H]2C(O)O[C@@H](CO)[C@H](O)[C@H]2O)CC1 (stereo partly drawn) [Compound 2, (5bS,6aS,7aR,8R,8aS,9aS,9bS,10aS,10bS)-8a-isopropyl-10b-methyl-3-oxo-1,2,3,5,5b,6,6a,8,8a,9a,9b,10b-dodecahydrotris(oxireno)[2′,3′:4b,5;2″,3″:6,7;2′″,3′″:8a,9]phenanthro[1,2-c]furan-8-yl 4-oxo-4-(4-(4-oxo-4-(((3S,4S,5R,6S)-2,4,5-trihydroxy-6-(hydroxymethyl)tetrahydro-2H-pyran-3-yl)amino)butanoyl)piperazin-1-yl)butanoate] | 315 | 84.4 | ≤ 2.7 times | 
3 | CC(C)[C@]12O[C@H]1[C@@H]1O[C@]13[C@]1(O[C@H]1C[C@H]1C4=C(CC[C@@]13C)C(=O)OC4)[C@@H]2OC(=O)CNC(=O)CNC(=O)COC[C@H]1OC(O)[C@H](O)[C@@H](O)[C@@H]1O (stereo partly shown) [Compound 4] |  |  |  | gradually shrinked to disappear
4 | CC(C)[C@]12O[C@H]1[C@@H]1O[C@]13[C@]1(O[C@H]1CC1C4=C(CC[C@@]13C)C(=O)OC4)[C@@H]2OC(=O)CCC(=O)NC(COCCC(=O)NCCCNC(=O)CCCC(=O)N[C@H]1C(O)O[C@H](CO)[C@@H](O)[C@@H]1O)(COCCC(=O)NCCCNC(=O)CCCC(=O)N[C@H]1C(O)O[C@H](CO)[C@@H](O)[C@@H]1O)COCCC(=O)NCCCNC(=O)CCCC(=O)N[C@H]1C(O)O[C@H](CO)[C@@H](O)[C@@H]1O (stereo partly shown) [Compound 8] |  |  |  | gradually shrinked to disappear
5 | CC(C)[C@]12O[C@H]1[C@@H]1O[C@]13[C@]1(O[C@H]1CC1C4=C(CC[C@@]13C)C(=O)OC4)[C@@H]2OC(=O)CCC(=O)NC(COCCC(=O)NCCCNC(=O)CCCCO[C@@H]1O[C@H](CO)[C@@H](O)[C@H](O)[C@H]1O)(COCCC(=O)NCCCNC(=O)CCCCO[C@@H]1O[C@H](CO)[C@@H](O)[C@H](O)[C@H]1O)COCCC(=O)NCCCNC(=O)CCCCO[C@@H]1O[C@H](CO)[C@@H](O)[C@H](O)[C@H]1O (stereo partly shown) [Compound 9] |  |  |  | gradually shrinked to disappear
6 | CC(=O)N[C@H]1[C@H](OCCCCC(=O)NCCCNC(=O)CCOCC(COCCC(=O)NCCCNC(=O)CCCCO[C@@H]2O[C@H](CO)[C@H](O)[C@H](O)[C@H]2NC(C)=O)(COCCC(=O)NCCCNC(=O)CCCCO[C@@H]2O[C@H](CO)[C@H](O)[C@H](O)[C@H]2NC(C)=O)NC(=O)CCC(=O)O[C@@H]2[C@@]3(C(C)C)O[C@H]3[C@@H]3O[C@]34[C@]23O[C@H]3CC2C3=C(CC[C@@]24C)C(=O)OC3)O[C@H](CO)[C@H](O)[C@@H]1O (stereo partly shown) [Compound 10] |  |  |  | gradually shrinked to disappear
7 | COc1cc2nccc(Oc3ccc(NC(=O)NC4CC4)c(Cl)c3)c2cc1C(N)=O [Lenvatinib, reference compound] | 381 | 42.3 | ≤ 9 times | 
